From ChEMBL document CHEMBL3992539, “Discovery of a series of N-(5-(quinolin-6-yl)pyridin-3-yl)benzenesulfonamides as PI3K/mTOR dual inhibitors” (Eur J Med Chem, 2017)
Active and inactive are the calls of the source. The rule behind the calls is not given here.

What was measured:
[1] = test system: HCT-116; assay: Antiproliferative activity against human HCT116 cells after 72 hrs by SRB assay; format: functional, cell-based; details: HCT-116, 72 h
[2] = test system: PC-3; assay: Antiproliferative activity against human PC3 cells after 72 hrs by SRB assay; format: functional, cell-based; details: PC-3, 72 h
[3] = target: PI3-kinase p110-alpha/p85-alpha (Homo sapiens, UniProt P42336); assay: Inhibition of PI3K p110alpha/p85alpha (unknown origin) using PIP2 as substrate after 1 hr by luminescent kinase-Glo assay; format: protein-complex assay
[4] = target: Serine/threonine-protein kinase mTOR (Homo sapiens, UniProt P42345); assay: Inhibition of recombinant human N-terminal FLAG-tagged mTOR (1362-end residues) using ULight-4E-BP1 peptide substrate after 1 hr in presence of ATP by Lance Ultra assay
[5] = Mean residence time in mouse at 5 mg/kg, po by UPLC-MS/MS analysis; format: ADME, organism-based; details: in vivo
[6] = target: T1, Phosphatidylinositol 4,5-bisphosphate 3-kinase catalytic subunit delta isoform (Homo sapiens, UniProt O00329); assay: Inhibition of PI3K p110delta (unknown origin) using PIP2 as substrate after 1 hr by ADP-Glo kinase assay
T1 sequence (O00329 whole entry): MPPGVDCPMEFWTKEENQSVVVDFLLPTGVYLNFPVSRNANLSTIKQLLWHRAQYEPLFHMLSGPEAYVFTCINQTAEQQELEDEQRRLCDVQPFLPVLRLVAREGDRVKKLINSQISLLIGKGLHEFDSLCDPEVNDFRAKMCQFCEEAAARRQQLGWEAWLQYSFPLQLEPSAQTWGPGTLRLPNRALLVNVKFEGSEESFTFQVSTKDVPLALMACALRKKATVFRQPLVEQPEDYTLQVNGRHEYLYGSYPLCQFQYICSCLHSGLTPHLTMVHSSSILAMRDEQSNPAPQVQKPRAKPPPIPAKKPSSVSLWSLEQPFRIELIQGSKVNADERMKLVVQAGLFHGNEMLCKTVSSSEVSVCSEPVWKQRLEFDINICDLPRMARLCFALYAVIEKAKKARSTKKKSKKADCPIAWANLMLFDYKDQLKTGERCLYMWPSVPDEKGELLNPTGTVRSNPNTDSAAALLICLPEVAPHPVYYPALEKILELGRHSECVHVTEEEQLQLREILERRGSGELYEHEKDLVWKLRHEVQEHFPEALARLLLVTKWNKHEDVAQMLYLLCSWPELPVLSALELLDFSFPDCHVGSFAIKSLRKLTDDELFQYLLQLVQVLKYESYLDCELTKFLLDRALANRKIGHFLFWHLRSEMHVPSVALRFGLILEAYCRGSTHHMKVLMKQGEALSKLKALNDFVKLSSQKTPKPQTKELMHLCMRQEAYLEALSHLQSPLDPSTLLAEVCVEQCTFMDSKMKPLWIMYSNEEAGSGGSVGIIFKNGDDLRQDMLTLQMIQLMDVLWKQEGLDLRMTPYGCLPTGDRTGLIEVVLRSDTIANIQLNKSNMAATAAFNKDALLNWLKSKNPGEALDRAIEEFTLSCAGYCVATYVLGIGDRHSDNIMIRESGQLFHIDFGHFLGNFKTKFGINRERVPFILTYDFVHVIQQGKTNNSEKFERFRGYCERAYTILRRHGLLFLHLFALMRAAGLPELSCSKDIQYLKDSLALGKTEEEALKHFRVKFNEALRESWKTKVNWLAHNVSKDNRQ

[7] = test system: Mus musculus; assay: Volume of distribution in mouse at 5 mg/kg, po by UPLC-MS/MS analysis; format: ADME, organism-based; details: in vivo
[8] = Cmax in mouse at 5 mg/kg, po by UPLC-MS/MS analysis; format: ADME, organism-based; parameters: dose 5 mg/kg, route oral; details: in vivo
[9] = Plasma clearance in mouse at 5 mg/kg, po by UPLC-MS/MS analysis; format: ADME, organism-based
[10] = species: Homo sapiens; assay: Inhibition of PI3K in PTEN null human PC3 cells assessed as reduction in Akt phosphorylation at Ser-473 residue at 100 nM after 3 hrs by Western blot method; format: cell-based
[11] = AUCt in mouse at 5 mg/kg, po by UPLC-MS/MS analysis; format: ADME, organism-based; details: in vivo
[12] = Terminal half life in mouse at 5 mg/kg, po by UPLC-MS/MS analysis; format: ADME, organism-based; details: in vivo, read-out: beta t1/2 (converted)
[13] = target: PI3K p110 beta/p85 alpha (Homo sapiens, UniProt P42338); assay: Inhibition of recombinant full length human N-terminal His6-tagged PI3K p110beta/p85alpha expressed in baculovirus infected Sf21 cells using PIP2 as substrate after 1 hr by ADP-Glo kinase assay
[14] = target: Phosphatidylinositol 4,5-bisphosphate 3-kinase catalytic subunit gamma isoform (Homo sapiens, UniProt P48736); assay: Inhibition of recombinant full length His-tagged human PI3K p110gamma expressed in baculovirus expression system using PIP2 as substrate after 1 hr by ADP-Glo kinase assay
Phosphatidylinositol 4,5-bisphosphate 3-kinase catalytic subunit gamma isoform, sequence (P48736 whole entry, canonical isoform): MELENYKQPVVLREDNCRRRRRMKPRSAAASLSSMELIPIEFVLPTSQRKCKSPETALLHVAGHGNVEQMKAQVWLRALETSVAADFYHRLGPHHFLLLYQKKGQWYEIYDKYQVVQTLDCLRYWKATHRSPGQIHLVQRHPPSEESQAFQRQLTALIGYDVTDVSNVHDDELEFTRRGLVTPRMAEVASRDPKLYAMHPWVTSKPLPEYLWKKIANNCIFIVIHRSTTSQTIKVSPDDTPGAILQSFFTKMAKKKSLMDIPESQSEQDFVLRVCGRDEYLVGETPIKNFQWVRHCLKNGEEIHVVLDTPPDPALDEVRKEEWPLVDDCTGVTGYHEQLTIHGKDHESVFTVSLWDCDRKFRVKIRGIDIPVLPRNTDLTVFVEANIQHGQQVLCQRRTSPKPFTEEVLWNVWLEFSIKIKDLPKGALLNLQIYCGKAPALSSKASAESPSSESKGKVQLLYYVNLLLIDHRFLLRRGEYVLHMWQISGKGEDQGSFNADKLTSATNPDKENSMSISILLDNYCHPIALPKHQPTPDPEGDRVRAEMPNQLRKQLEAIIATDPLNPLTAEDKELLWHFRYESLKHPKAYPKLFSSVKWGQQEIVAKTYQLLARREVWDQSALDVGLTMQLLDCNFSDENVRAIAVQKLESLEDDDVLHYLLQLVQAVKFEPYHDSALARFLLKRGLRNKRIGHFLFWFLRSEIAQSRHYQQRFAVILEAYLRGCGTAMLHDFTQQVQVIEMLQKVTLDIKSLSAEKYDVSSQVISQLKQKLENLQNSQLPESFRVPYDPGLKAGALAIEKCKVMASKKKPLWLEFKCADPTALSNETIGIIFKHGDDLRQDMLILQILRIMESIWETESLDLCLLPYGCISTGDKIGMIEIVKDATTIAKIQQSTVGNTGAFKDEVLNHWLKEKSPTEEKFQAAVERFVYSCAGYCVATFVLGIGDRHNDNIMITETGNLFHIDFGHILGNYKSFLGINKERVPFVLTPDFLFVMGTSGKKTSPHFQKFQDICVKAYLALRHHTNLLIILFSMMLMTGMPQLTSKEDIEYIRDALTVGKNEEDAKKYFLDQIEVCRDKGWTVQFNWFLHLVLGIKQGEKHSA

PI3-kinase p110-alpha/p85-alpha, sequence (P27986 whole entry): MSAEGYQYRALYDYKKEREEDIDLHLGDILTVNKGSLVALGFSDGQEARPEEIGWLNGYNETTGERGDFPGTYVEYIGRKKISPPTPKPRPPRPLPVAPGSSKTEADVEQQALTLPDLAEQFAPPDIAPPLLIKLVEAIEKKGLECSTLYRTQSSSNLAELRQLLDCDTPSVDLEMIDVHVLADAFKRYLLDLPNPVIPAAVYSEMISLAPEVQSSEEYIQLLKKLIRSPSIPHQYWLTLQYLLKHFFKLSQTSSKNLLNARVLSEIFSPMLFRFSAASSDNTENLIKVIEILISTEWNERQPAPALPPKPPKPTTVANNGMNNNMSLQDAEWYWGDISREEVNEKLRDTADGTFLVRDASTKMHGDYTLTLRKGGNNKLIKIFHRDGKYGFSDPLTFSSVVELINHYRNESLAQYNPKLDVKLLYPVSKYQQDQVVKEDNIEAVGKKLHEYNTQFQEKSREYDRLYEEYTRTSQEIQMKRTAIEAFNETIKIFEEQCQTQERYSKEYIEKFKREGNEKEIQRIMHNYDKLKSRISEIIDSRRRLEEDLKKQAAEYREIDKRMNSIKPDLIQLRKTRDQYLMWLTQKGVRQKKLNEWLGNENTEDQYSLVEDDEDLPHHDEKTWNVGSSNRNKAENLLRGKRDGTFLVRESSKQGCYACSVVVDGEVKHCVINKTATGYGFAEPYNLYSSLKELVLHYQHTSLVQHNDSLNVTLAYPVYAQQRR
PI3-kinase p110-alpha/p85-alpha, sequence (P42336 whole entry): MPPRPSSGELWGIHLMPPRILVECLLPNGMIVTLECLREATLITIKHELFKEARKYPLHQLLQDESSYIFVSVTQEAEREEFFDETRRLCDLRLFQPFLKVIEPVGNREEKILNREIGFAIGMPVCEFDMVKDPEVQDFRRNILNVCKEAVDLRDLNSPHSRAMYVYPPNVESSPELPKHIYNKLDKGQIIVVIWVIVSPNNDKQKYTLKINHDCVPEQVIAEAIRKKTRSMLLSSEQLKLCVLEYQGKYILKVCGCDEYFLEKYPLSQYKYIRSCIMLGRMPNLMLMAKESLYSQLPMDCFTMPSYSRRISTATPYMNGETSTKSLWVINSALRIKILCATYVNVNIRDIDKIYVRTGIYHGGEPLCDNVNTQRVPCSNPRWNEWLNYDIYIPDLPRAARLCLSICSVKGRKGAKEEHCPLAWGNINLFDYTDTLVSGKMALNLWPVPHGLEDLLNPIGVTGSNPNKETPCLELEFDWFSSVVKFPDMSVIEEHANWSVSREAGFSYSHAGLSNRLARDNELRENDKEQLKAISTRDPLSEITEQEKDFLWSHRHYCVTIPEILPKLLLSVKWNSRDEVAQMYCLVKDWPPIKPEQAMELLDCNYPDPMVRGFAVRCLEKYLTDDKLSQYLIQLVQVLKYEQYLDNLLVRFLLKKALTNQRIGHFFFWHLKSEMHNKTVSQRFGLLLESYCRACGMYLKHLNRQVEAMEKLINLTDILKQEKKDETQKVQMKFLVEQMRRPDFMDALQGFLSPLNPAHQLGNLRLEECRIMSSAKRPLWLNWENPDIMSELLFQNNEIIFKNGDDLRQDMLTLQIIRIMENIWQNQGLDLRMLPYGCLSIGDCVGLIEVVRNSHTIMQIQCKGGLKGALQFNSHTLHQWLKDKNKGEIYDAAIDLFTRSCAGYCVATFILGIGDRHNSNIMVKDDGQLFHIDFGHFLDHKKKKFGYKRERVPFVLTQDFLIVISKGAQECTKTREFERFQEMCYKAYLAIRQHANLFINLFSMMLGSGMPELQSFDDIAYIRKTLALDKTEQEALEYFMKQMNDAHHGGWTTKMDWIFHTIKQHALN
PI3K p110 beta/p85 alpha, sequence (P27986 whole entry, canonical isoform): as the sequence (P27986 whole entry) above
PI3K p110 beta/p85 alpha, sequence (P42338 whole entry, canonical isoform): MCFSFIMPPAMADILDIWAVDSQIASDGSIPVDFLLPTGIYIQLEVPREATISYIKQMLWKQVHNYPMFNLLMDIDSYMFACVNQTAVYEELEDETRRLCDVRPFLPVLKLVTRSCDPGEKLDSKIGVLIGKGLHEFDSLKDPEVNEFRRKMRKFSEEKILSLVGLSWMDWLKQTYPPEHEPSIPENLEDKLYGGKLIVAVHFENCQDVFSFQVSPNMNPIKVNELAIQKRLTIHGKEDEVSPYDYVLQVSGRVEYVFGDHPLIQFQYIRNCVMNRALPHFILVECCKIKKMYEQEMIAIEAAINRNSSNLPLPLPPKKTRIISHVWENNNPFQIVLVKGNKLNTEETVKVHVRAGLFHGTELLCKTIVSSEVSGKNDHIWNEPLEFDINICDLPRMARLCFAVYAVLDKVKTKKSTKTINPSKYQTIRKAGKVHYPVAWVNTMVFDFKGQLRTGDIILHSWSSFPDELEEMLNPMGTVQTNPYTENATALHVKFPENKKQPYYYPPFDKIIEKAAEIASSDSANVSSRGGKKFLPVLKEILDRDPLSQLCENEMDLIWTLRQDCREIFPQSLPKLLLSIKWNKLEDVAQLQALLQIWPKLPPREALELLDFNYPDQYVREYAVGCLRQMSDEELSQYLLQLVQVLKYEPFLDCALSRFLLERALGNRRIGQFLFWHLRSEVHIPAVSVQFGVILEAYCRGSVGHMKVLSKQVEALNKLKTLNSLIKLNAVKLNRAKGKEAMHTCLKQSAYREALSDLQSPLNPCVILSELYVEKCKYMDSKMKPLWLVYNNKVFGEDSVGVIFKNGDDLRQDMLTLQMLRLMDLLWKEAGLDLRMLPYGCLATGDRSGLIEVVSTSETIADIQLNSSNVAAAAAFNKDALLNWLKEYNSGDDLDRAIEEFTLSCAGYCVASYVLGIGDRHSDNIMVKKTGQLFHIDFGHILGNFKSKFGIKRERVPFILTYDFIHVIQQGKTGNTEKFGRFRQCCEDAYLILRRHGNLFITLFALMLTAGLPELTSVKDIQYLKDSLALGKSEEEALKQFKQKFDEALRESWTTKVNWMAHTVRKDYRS

| SMILES | IC50 [1] | IC50 [2] | IC50 [3] | further results |
| --- | --- | --- | --- | --- |
| Cn1c(=O)n(-c2ccc(C(C)(C)C#N)cc2)c2c3cc(-c4cnc5ccccc5c4)ccc3ncc21 [DACTOLISIB] | 220 nM | 510 nM |  |  |
| COc1ncc(-c2ccc3ncc(NC(=O)CN4CCOCC4)c(OC)c3c2)cc1NS(=O)(=O)c1ccc(F)cc1 | 2830 nM | 1830 nM | 2.7 nM |  |
| COc1ncc(-c2ccc3ncc(NC(=O)CN(C)CCO)c(OC)c3c2)cc1NS(=O)(=O)c1ccc(F)cc1F | 1790 nM | 2000 nM | 1.3 nM |  |
| COc1ncc(-c2ccc3ncc(NC(C)=O)c(OC)c3c2)cc1NS(=O)(=O)c1ccc(F)cc1F | 550 nM | 1240 nM | 8.4 nM |  |
| COc1ncc(-c2ccc3ncc(NC(=O)CN4CCOCC4)c(OC)c3c2)cc1NS(=O)(=O)c1ccc(F)cc1F | 470 nM | 80 nM | 1.7 nM | IC50 [4]: 10 nM; MRT [5]: 2.7 h; IC50 [6]: 0.87 nM; Vd [7]: 1 L/kg; Cmax [8]: 2950 ng/mL; CL/F [9]: 7 mL/min/kg; inhibition [10]: Active; AUC(0-t) [11]: 11700 ng·h/mL; half-life [12]: 1.6 h; IC50 [13]: 3.9 nM; IC50 [14]: 8.4 nM |
| COc1ncc(-c2ccc3ncc(NC(=O)CN4CCN(C)CC4)c(OC)c3c2)cc1NS(=O)(=O)c1ccc(F)cc1F | 1540 nM | 1730 nM | 3.2 nM |  |
| CCNc1cnc2ccc(-c3cnc(OC)c(NS(=O)(=O)c4ccc(F)cc4F)c3)cc2c1OC | 1850 nM | 4820 nM | 9.4 nM |  |
| COc1ncc(-c2ccc3ncc(NCc4ccc(C(F)(F)F)cc4)c(OC)c3c2)cc1NS(=O)(=O)c1ccc(F)cc1F | 3220 nM | 2880 nM | 30 nM |  |
| COc1ncc(-c2ccc3ncc(NCC4CCN(C(C)=O)CC4)c(OC)c3c2)cc1NS(=O)(=O)c1ccc(F)cc1F | 1930 nM | 2570 nM | 3.7 nM |  |
| COc1ncc(-c2ccc3ncc(NC(=O)CN4CCC(O)CC4)c(OC)c3c2)cc1NS(=O)(=O)c1ccc(F)cc1F | 1980 nM | 3210 nM | 2 nM |  |
| COc1ncc(-c2ccc3ncc(NC(=O)CN4CCCC(O)C4)c(OC)c3c2)cc1NS(=O)(=O)c1ccc(F)cc1F (stereo unspecified) | 1770 nM | 1340 nM | 1.5 nM |  |
| COc1ncc(-c2ccc3ncc(NCc4ccccc4)c(OC)c3c2)cc1NS(=O)(=O)c1ccc(F)cc1F | 16800 nM | 4320 nM | 36 nM |  |
| COc1ncc(-c2ccc3ncc(NC(=O)CN4CCOCC4)c(OC)c3c2)cc1NS(=O)(=O)c1ccc(C(F)(F)F)cc1 | 2520 nM | 3750 nM | 2.26 nM |  |
| COc1ncc(-c2ccc3ncc(NCC4CCCCC4)c(OC)c3c2)cc1NS(=O)(=O)c1ccc(F)cc1F | 13600 nM | 9000 nM | 210 nM |  |
| COc1ccc(CNc2cnc3ccc(-c4cnc(OC)c(NS(=O)(=O)c5ccc(F)cc5F)c4)cc3c2OC)cc1 | 10200 nM | 4520 nM | 27 nM |  |
| COc1ncc(-c2ccc3ncc(NCC4CCN(S(C)(=O)=O)CC4)c(OC)c3c2)cc1NS(=O)(=O)c1ccc(F)cc1F | 1360 nM | 2850 nM | 4.7 nM |  |
| COc1ncc(-c2ccc3ncc(NC(=O)C4CCCCC4)c(OC)c3c2)cc1NS(=O)(=O)c1ccc(F)cc1F | 4610 nM | 6630 nM | 15 nM |  |
